Read-outs that look alike come from different tables or passages of the source.
Key:
786-0 = assay: cells; format: cell-based; conditions: Homo sapiens, 786-0, renal cancer, 48 h
PC-3 = assay: cells; format: cell-based; conditions: Homo sapiens, PC-3, prostate cancer, 48 h
RXF 393 = assay: cells; format: cell-based; conditions: Homo sapiens, RXF 393, renal cancer, 48 h
UACC-257 = assay: cells; format: cell-based; conditions: Homo sapiens, UACC-257, 48 h
T-47D = assay: NCI 60 cell line panel screening assay (SRB), T-47D; conditions: Homo sapiens, T47D, 48 h
60 cell line panel = assay: NCI 60 cell line panel, whole panel
MOLT-4 = assay: cells; conditions: Homo sapiens
OVCAR-3 = assay: cells; format: cell-based; conditions: Homo sapiens
M14 = assay: NCI 60 cell line panel screening assay (SRB), M14; conditions: Homo sapiens, M14, 48 h
HOP-92 = assay: cells; format: cell-based; conditions: Homo sapiens, HOP-92, non-small cell lung cancer, 48 h
SNB-75 = assay: cells; format: cell-based; conditions: Homo sapiens; SNB-75, CNS cancer, 48 h; read-out: Log10 LC50 (converted)
KM12 = assay: cells; format: cell-based; conditions: Homo sapiens, KM12, colon cancer, 48 h
SK-MEL-28 = assay: cells; format: cell-based; conditions: Homo sapiens, SK-MEL-28, melanoma, 48 h
NCI-H226 = assay: cells; format: cell-based; conditions: Homo sapiens, NCI-H226, 48 h, read-out: Log10 GI50 (converted)
SF-268 = assay: cells; format: cell-based; conditions: Homo sapiens, SF-268, CNS cancer, 48 h
U251 = assay: cells; format: cell-based; conditions: Homo sapiens, U-251, U251, CNS cancer, 48 h
HOP-62 = assay: cells; format: cell-based; conditions: Homo sapiens, HOP-62, non-small cell lung cancer, 48 h
RPMI-8226 = assay: NCI 60 cell line panel screening assay (SRB), RPMI-8226; format: cell-based; conditions: Homo sapiens
BT-549 = assay: cells; format: cell-based; conditions: Homo sapiens, BT-549, breast cancer, 48 h
CCRF-CEM = assay: cells; format: cell-based; conditions: Homo sapiens, 48 h
MCF7 = assay: cells; format: cell-based; conditions: Homo sapiens; MCF7, breast cancer, 48 h; read-out: Log10 LC50 (converted)
NCI-H322M = assay: cells; conditions: Homo sapiens, 48 h
SN12C = assay: NCI 60 cell line panel screening assay (SRB), SN12C; format: cell-based; conditions: Homo sapiens, renal cancer, 48 h
SK-OV-3 = assay: cells; format: cell-based; conditions: Homo sapiens
A498 = assay: cells; format: cell-based; conditions: Homo sapiens, A498, renal cancer, 48 h
COLO 205 = assay: NCI 60 cell line panel screening assay (SRB), COLO 205; format: cell-based; conditions: Homo sapiens
TK-10 = assay: cells; format: cell-based; conditions: Homo sapiens, TK-10, renal cancer, 48 h
OVCAR-5 = assay: cells; format: cell-based; conditions: Homo sapiens
SR = assay: cells; format: cell-based; conditions: Homo sapiens, leukemia, 48 h
SNB-19 = assay: cells; format: cell-based; conditions: Homo sapiens, SNB-19, CNS cancer, 48 h
[1] = read-out: Log10 GI50 (converted)
[2] = read-out: Log10 LC50 (converted)

CC1CCC2C(C)C(CC(=O)c3cccc(C(=O)CC4OC5OC6(C)CCC7C(C)CCC(C4C)C57OO6)c3)OC3OC4(C)CCC1C32OO4 (stereo not drawn) [Dimer 39]
GI50 (786-0; [1]): > 100 µM
CC50 (786-0; [2]): > 100 µM
IC (TGI) (786-0; read-out: Log10 TGI): > 100 µM
GI50 (PC-3; [1]): > 100 µM
LC50 (PC-3; [2]): > 100 µM
GI50 (RXF 393; [1]): > 100 µM
CC50 (RXF 393; [2]): > 100 µM
IC (TGI) (RXF 393; read-out: Log10 TGI): > 100 µM
IC (TGI) (UACC-257; read-out: Log10 TGI): > 100 µM
GI50 (UACC-257; [1]): > 100 µM
CC50 (UACC-257; [2]): > 100 µM
GI50 (T-47D; [1]): > 100 µM
CC50 (T-47D; [2]): > 100 µM
IC (TGI) (60 cell line panel; 60 cell, read-out: MG MID of Log10 TGI): 100 µM
CC50 (60 cell line panel; Homo sapiens, 60 cell, read-out: MG MID of Log10 LC50 (converted)): 100 µM
Delta of Log10 TGI (60 cell line panel; panel): 0.00
Range of Log10 TGI (60 cell line panel; panel): 0.00
CC50 (MOLT-4; MOLT-4, 48 h, read-out: Log10 LC50 (converted)): > 100 µM
IC (TGI) (MOLT-4; MOLT-4, 48 h, read-out: Log10 TGI): > 100 µM
CC50 (MOLT-4; MOLT-4, read-out: concentration for cytotoxicity (PG -50)): > 100 µM
IC50 (MOLT-4; MOLT-4, read-out: concentration for primary growth inhibition (PG +50)): > 100 µM
IC (TGI) (OVCAR-3; OVCAR-3, 48 h, read-out: Log10 TGI): > 100 µM
GI50 (OVCAR-3; OVCAR-3, ovarian cancer, 48 h, read-out: Log10 GI50 (converted)): > 100 µM
CC50 (OVCAR-3; OVCAR-3, ovarian cancer, 48 h, read-out: Log10 LC50 (converted)): > 100 µM
GI50 (M14; [1]): > 100 µM
CC50 (M14; [2]): > 100 µM
IC (TGI) (M14; read-out: Log10 TGI): > 100 µM
GI50 (HOP-92; [1]): > 100 µM
CC50 (HOP-92; [2]): > 100 µM
CC50 (SNB-75): > 100 µM
GI50 (KM12; [1]): > 100 µM
CC50 (KM12; [2]): > 100 µM
GI50 (SK-MEL-28; [1]): > 100 µM
CC50 (SK-MEL-28; [2]): > 100 µM
IC (TGI) (SK-MEL-28; read-out: Log10 TGI): > 100 µM
GI50 (NCI-H226): 29.5 µM
GI50 (SF-268; [1]): > 100 µM
CC50 (SF-268; [2]): > 100 µM
GI50 (U251; [1]): > 100 µM
CC50 (U251; [2]): > 100 µM
GI50 (HOP-62; [1]): > 100 µM
LC50 (HOP-62; [2]): > 100 µM
CC50 (RPMI-8226; RPMI-8226, 48 h, read-out: Log10 LC50 (converted)): > 100 µM
GI50 (RPMI-8226; RPMI-8226, leukemia, 48 h, read-out: Log10 GI50 (converted)): > 100 µM
IC (TGI) (RPMI-8226; RPMI-8226, leukemia, 48 h, read-out: Log10 TGI): > 100 µM
GI50 (BT-549; [1]): > 100 µM
CC50 (BT-549; [2]): > 100 µM
GI50 (CCRF-CEM; [1]): > 100 µM
CC50 (CCRF-CEM; [2]): > 100 µM
IC (TGI) (CCRF-CEM; leukemia, read-out: Log10 TGI): > 100 µM
CC50 (MCF7): > 100 µM
GI50 (NCI-H322M; [1]): > 100 µM
CC50 (NCI-H322M; [2]): > 100 µM
IC (TGI) (NCI-H322M; read-out: Log10 TGI): > 100 µM
GI50 (SN12C; [1]): > 100 µM
CC50 (SN12C; [2]): > 100 µM
IC (TGI) (SN12C; read-out: Log10 TGI): > 100 µM
IC (TGI) (SK-OV-3; SK-OV-3, 48 h, read-out: Log10 TGI): > 100 µM
GI50 (SK-OV-3; SK-OV-3, ovarian cancer, 48 h, read-out: Log10 GI50 (converted)): > 100 µM
CC50 (SK-OV-3; SK-OV-3, ovarian cancer, 48 h, read-out: Log10 LC50 (converted)): > 100 µM
CC50 (A498; [2]): > 100 µM
IC (TGI) (A498; read-out: Log10 TGI): > 100 µM
CC50 (COLO 205; COLO 205, 48 h, read-out: Log10 LC50 (converted)): > 100 µM
GI50 (COLO 205; COLO 205, colon cancer, 48 h, read-out: Log10 GI50 (converted)): > 100 µM
GI50 (TK-10; [1]): > 100 µM
CC50 (TK-10; [2]): > 100 µM
IC (TGI) (TK-10; read-out: Log10 TGI): > 100 µM
IC (TGI) (OVCAR-5; OVCAR-5, 48 h, read-out: Log10 TGI): > 100 µM
CC50 (OVCAR-5; OVCAR-5, ovarian cancer, 48 h, read-out: Log10 LC50 (converted)): > 100 µM
GI50 (SR; [1]): > 100 µM
CC50 (SR; [2]): > 100 µM
IC (TGI) (SR; read-out: Log10 TGI): > 100 µM
GI50 (SNB-19; [1]): > 100 µM
CC50 (SNB-19; [2]): > 100 µM
IC (TGI) (SNB-19; read-out: Log10 TGI): > 100 µM

Source: patent US6160004A, “C-10 carbon-substituted artemisinin-like trioxane compounds having antimalarial, antiproliferative and antitumor activities” (priority 1998, dated 2000)
